Measurements from PubChem BioAssay AID1963961 (Molecular Pharmacology Branch, DTP, NCI, 2024).
pIC50: −log10 of the molar value.

Tested on: K98450-129-R-PDC multicell spheroids, viability
Test: Anticancer human tumor K98450-129-R-PDC patient-derived colon adenocarcinoma cell line growth inhibition [PI3K]
Conditions: for pIC50: curve of first compound; for viability, T/C: stronger effect = lower value
Outline: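 Spheroid viability read-out. Co-cultures contained the tumor line plus HUVEC and human MSCs. Each agent was paired with a PI3K inhibitor (inavolisib, alpelisib, duvelisib, copanlisib) across half-log dilutions starting at clinical Cmax, or at 10 microM when Cmax was unknown.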

[1] = second compound 0.00316 µM, first compound 0.0316 µM
[2] = second compound 0.00316 µM, first compound 0.1 µM
[3] = second compound 0.00316 µM, first compound 0.316 µM
[4] = second compound 0.00316 µM, first compound 1 µM
[5] = second compound 0.00316 µM, first compound 3.16 µM
[6] = second compound 0.00316 µM, first compound 10 µM
[7] = second compound 0.01 µM, first compound 0.0316 µM
[8] = second compound 0.01 µM, first compound 0.1 µM
[9] = second compound 0.01 µM, first compound 0.316 µM
[10] = second compound 0.01 µM, first compound 1 µM
[11] = second compound 0.01 µM, first compound 3.16 µM
[12] = second compound 0.01 µM, first compound 10 µM
[13] = second compound 0.0316 µM, first compound 0.0316 µM
[14] = second compound 0.0316 µM, first compound 0.1 µM
[15] = second compound 0.0316 µM, first compound 0.316 µM
[16] = second compound 0.0316 µM, first compound 1 µM
[17] = second compound 0.0316 µM, first compound 3.16 µM
[18] = second compound 0.0316 µM, first compound 10 µM
[19] = second compound 0.1 µM, first compound 0.0316 µM
[20] = second compound 0.1 µM, first compound 0.1 µM
[21] = second compound 0.1 µM, first compound 0.316 µM
[22] = second compound 0.1 µM, first compound 1 µM
[23] = second compound 0.1 µM, first compound 3.16 µM
[24] = second compound 0.1 µM, first compound 10 µM
[25] = second compound 0.316 µM, first compound 0.0316 µM
[26] = second compound 0.316 µM, first compound 0.1 µM
[27] = second compound 0.316 µM, first compound 0.316 µM
[28] = second compound 0.316 µM, first compound 1 µM
[29] = second compound 0.316 µM, first compound 3.16 µM
[30] = second compound 0.316 µM, first compound 10 µM
[31] = second compound 1 µM, first compound 0.0316 µM
[32] = second compound 1 µM, first compound 0.1 µM
[33] = second compound 1 µM, first compound 0.316 µM
[34] = second compound 1 µM, first compound 1 µM
[35] = second compound 1 µM, first compound 3.16 µM
[36] = second compound 1 µM, first compound 10 µM
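Note: spheroids exposed to agents for seven days before read-out.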

`CCCS(=O)(=O)Nc1ccc(F)c(C(=O)c2c[nH]c3ncc(-c4ccc(Cl)cc4)cc23)c1F` + COc1c(OCCCN2CCOCC2)ccc2c3n(c(=NC(=O)c4cnc(N)nc4)nc12)CCN3 gave a pIC50 (second compound 0.00316 µM) of 5.22, a pIC50 (second compound 0.01 µM) of 5.24 and a pIC50 (second compound 0.0316 µM) of 5.26. For the same compound, the pIC50 (second compound 0.1 µM) was 5.40, the pIC50 (second compound 0.316 µM) was 5.57 and the pIC50 (second compound 1 µM) was 5.78. The viability, T/C [1] was 107%, the viability, T/C [2] was 105% and the viability, T/C [3] was 95.1%. For the same compound, the viability, T/C [4] was 120%, the viability, T/C [5] was 105% and the viability, T/C [6] was 5.65%. It also gave a viability, T/C [7] of 116%, a viability, T/C [8] of 93% and a viability, T/C [9] of 93.4%. It also gave a viability, T/C [10] of 60.2%, a viability, T/C [11] of 93.9% and a viability, T/C [12] of 12.2%. The viability, T/C [13] was 99%, the viability, T/C [14] was 95.5% and the viability, T/C [15] was 82.3%. The viability, T/C [16] was 78.3%, the viability, T/C [17] was 91.6% and the viability, T/C [18] was 8.56%. It also gave a viability, T/C [19] of 84%, a viability, T/C [20] of 98.2% and a viability, T/C [21] of 76.2%. For the same compound, the viability, T/C [22] was 80.2%, the viability, T/C [23] was 61.7% and the viability, T/C [24] was 7.64%. The viability, T/C [25] was 66.5%, the viability, T/C [26] was 79.5% and the viability, T/C [27] was 72%. The viability, T/C [28] was 80.2%, the viability, T/C [29] was 46.2% and the viability, T/C [30] was 7.49%. The viability, T/C [31] was 57.6%, the viability, T/C [32] was 53.8% and the viability, T/C [33] was 54.3%. It also gave a viability, T/C [34] of 59.9%, a viability, T/C [35] of 41.9% and a viability, T/C [36] of 7.62%.
`C[C@@H](NC(=O)c1ncnc(N)c1Cl)c1ncc(C(=O)Nc2cc(C(F)(F)F)c(Cl)cn2)s1` + COc1c(OCCCN2CCOCC2)ccc2c3n(c(=NC(=O)c4cnc(N)nc4)nc12)CCN3 showed a pIC50 (second compound 0.00316 µM) of less than 5.00, a pIC50 (second compound 0.01 µM) of less than 5.00 and a pIC50 (second compound 0.0316 µM) of less than 5.00. For the same compound, the pIC50 (second compound 0.1 µM) was less than 5.00, the pIC50 (second compound 0.316 µM) was less than 5.00 and the pIC50 (second compound 1 µM) was 5.36. For the same compound, the viability, T/C [1] was 119%, the viability, T/C [2] was 119% and the viability, T/C [3] was 108%. It also gave a viability, T/C [4] of 117%, a viability, T/C [5] of 133% and a viability, T/C [6] of 95%. For the same compound, the viability, T/C [7] was 108%, the viability, T/C [8] was 93.7% and the viability, T/C [9] was 115%. It also gave a viability, T/C [10] of 108%, a viability, T/C [11] of 105% and a viability, T/C [12] of 95.9%. For the same compound, the viability, T/C [13] was 83.5%, the viability, T/C [14] was 96% and the viability, T/C [15] was 97.4%. It also gave a viability, T/C [16] of 93%, a viability, T/C [17] of 109% and a viability, T/C [18] of 78.7%. The viability, T/C [19] was 76%, the viability, T/C [20] was 87% and the viability, T/C [21] was 98.4%. It also gave a viability, T/C [22] of 90.3%, a viability, T/C [23] of 101% and a viability, T/C [24] of 70.9%. For the same compound, the viability, T/C [25] was 54.8%, the viability, T/C [26] was 71.6% and the viability, T/C [27] was 65.2%. For the same compound, the viability, T/C [28] was 69.2%, the viability, T/C [29] was 68.2% and the viability, T/C [30] was 51.1%. For the same compound, the viability, T/C [31] was 58.3%, the viability, T/C [32] was 55% and the viability, T/C [33] was 51.1%. The viability, T/C [34] was 62.1%, the viability, T/C [35] was 59.6% and the viability, T/C [36] was 37.1%.
In the case of `Cn1ncnc1[C@H]1c2n[nH]c(=O)c3cc(F)cc(c23)N[C@@H]1c1ccc(F)cc1` + COc1c(OCCCN2CCOCC2)ccc2c3n(c(=NC(=O)c4cnc(N)nc4)nc12)CCN3, the pIC50 (second compound 0.00316 µM) was less than 7.00, the pIC50 (second compound 0.01 µM) was less than 7.00 and the pIC50 (second compound 0.0316 µM) was less than 7.00. It also gave a pIC50 (second compound 0.1 µM) of less than 7.00, a pIC50 (second compound 0.316 µM) of less than 7.00 and a pIC50 (second compound 1 µM) of less than 7.00. For the same compound, the viability, T/C (second compound 0.00316 µM, first compound 0.000316 µM) was 98.6%, the viability, T/C (second compound 0.00316 µM, first compound 0.001 µM) was 95.2% and the viability, T/C (second compound 0.00316 µM, first compound 0.00316 µM) was 96.7%. The viability, T/C (second compound 0.00316 µM, first compound 0.01 µM) was 98%, the viability, T/C [1] was 100% and the viability, T/C [2] was 92.9%. The viability, T/C (second compound 0.01 µM, first compound 0.000316 µM) was 91.8%, the viability, T/C (second compound 0.01 µM, first compound 0.001 µM) was 89.6% and the viability, T/C (second compound 0.01 µM, first compound 0.00316 µM) was 95.1%. For the same compound, the viability, T/C (second compound 0.01 µM, first compound 0.01 µM) was 96.9%, the viability, T/C [7] was 94.6% and the viability, T/C [8] was 91.9%. It also gave a viability, T/C (second compound 0.0316 µM, first compound 0.000316 µM) of 90.1%, a viability, T/C (second compound 0.0316 µM, first compound 0.001 µM) of 88.7% and a viability, T/C (second compound 0.0316 µM, first compound 0.00316 µM) of 94.5%. For the same compound, the viability, T/C (second compound 0.0316 µM, first compound 0.01 µM) was 90.6%, the viability, T/C [13] was 89.5% and the viability, T/C [14] was 70.1%. The viability, T/C (second compound 0.1 µM, first compound 0.000316 µM) was 92.3%, the viability, T/C (second compound 0.1 µM, first compound 0.001 µM) was 85.5% and the viability, T/C (second compound 0.1 µM, first compound 0.00316 µM) was 88.6%. It also gave a viability, T/C (second compound 0.1 µM, first compound 0.01 µM) of 89.8%, a viability, T/C [19] of 89.5% and a viability, T/C [20] of 78.6%. For the same compound, the viability, T/C (second compound 0.316 µM, first compound 0.000316 µM) was 56.6%, the viability, T/C (second compound 0.316 µM, first compound 0.001 µM) was 63.6% and the viability, T/C (second compound 0.316 µM, first compound 0.00316 µM) was 64.5%. The viability, T/C (second compound 0.316 µM, first compound 0.01 µM) was 48.5%, the viability, T/C [25] was 59.1% and the viability, T/C [26] was 65.4%. For the same compound, the viability, T/C (second compound 1 µM, first compound 0.000316 µM) was 49.9%, the viability, T/C (second compound 1 µM, first compound 0.001 µM) was 58% and the viability, T/C (second compound 1 µM, first compound 0.00316 µM) was 52.8%. The viability, T/C (second compound 1 µM, first compound 0.01 µM) was 62%, the viability, T/C [31] was 56.5% and the viability, T/C [32] was 54.1%.
